Laboratory results reported in paper PMC6079014, “Calcium is an essential cofactor for metal efflux by the ferroportin transporter family” (Nature Communications, 2018).
Like-named read-outs stand apart in the source and are kept apart here.

What was measured:
human Fpn = biological target: T1, human Fpn (Homo sapiens, UniProt Q9NP59); test: Radiotracer metal efflux assay in Xenopus oocytes expressing human Fpn; type: cell-based; details: for Ability of other alkaline-earth metals to substitute for Ca2+ in activating 55Fe efflux: Ca2+-free media, 2 mM Sr or Ba plus 1 mM Mg2+, or 3 mM Mg2+; for Effect on 55Fe efflux of pharmacologically raising the cytosolic Ca2+ concentration: 1 µM ionomycin (IMN) or 2 µM thapsigargin (THG), media with 0.2% DMSO
T1 construct: expressed in transfected cells; host or cells: Xenopus laevis oocytes injected with Fpn RNA
T1 sequence (Q9NP59 1-571): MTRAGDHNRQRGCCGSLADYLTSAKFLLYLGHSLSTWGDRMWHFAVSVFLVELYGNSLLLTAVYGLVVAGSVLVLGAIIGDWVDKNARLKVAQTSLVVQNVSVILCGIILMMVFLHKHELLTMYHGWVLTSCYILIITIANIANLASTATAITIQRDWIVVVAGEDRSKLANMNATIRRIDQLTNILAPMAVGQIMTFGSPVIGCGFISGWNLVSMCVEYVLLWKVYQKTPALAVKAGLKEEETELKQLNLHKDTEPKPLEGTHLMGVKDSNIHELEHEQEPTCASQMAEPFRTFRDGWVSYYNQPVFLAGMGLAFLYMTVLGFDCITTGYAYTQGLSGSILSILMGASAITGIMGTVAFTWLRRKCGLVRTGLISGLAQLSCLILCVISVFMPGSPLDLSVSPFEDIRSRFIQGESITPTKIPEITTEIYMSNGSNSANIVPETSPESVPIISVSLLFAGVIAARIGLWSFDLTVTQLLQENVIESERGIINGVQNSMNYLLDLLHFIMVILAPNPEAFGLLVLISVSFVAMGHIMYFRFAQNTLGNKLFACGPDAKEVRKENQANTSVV
Method: We performed laparotomy and ovariectomy on adult female Xenopus laevis frogs (Nasco, Fort Atkinson, WI) under 2-aminoethylbenzoate methanesulfonate anesthesia (0.2%, by immersion, to effect) following a protocol approved by the University of Cincinnati Institutional Animal Care and Use Committee. Ovarian tissue was isolated and treated for 3 h with […] collagenase A (Roche Diagnostics Corp., Indianapolis, IN) in calcium-free-modified Barths’ medium (MBM) of composition 88 mM NaCl, 1 mM KCl, 2.4 mM NaHCO3, 1.57 mM MgSO4, 0.66 mM NaNO3, 10 mM 4-(2-hydroxyethyl)-1-piperazineethanesulfonic acid (HEPES), buffered to pH 7.5 by using 2-amino-2-hydroxymethyl-propane-1,3-diol (Tris base). We isolated defolliculate stage V–VI oocytes stored at 17 °C in MBM of composition 88 mM NaCl, 1 mM KCl, 2.4 mM NaHCO3, 0.82 MgSO4, 0.75 mM CaCl2, 0.66 mM NaNO3, 10 mM HEPES, buffered to pH 7.5 by using Tris base, with 50 mg l^−1 ciprofloxacin. We expressed in Xenopus oocytes the 1A transcript form of human Fpn fused at its C-terminus with the enhanced green fluorescent protein (GFP) as described. Oocytes were injected with ∼50 ng of Fpn RNA and incubated for 4–6 days before being used in functional assays. Control oocytes were noninjected.
We measured metal efflux from oocytes expressing Fpn by using a radiotracer assay. Radiochemicals ^55Fe, ^45Ca, ^57Co, ^65Zn were obtained from Perkin-Elmer Life Science Products (Boston, MA) and ^63Ni from the National Isotope Development Center (Oak Ridge, TN). We used ^55Fe (added as FeCl3) at final specific activity 0.4–2.0 GBq mg^−1, ^45Ca (added as CaCl2) at final specific activity 0.5–0.9 GBq mg^−1, ^57Co (added as CoCl2) at final specific activity 1.6 GBq mg^−1, ^65Zn (added as ZnCl2) at final specific activity 0.2 GBq mg^−1, and ^63Ni (added as NiCl2) at final specific activity 0.6 GBq mg^−1. Oocytes were injected with 50 nl of 5 μM metal radionuclide (*M) in vehicle of composition 250 mM KCl, 5 mM nitrilotriacetic acid, trisodium salt, buffered to pH 7.0 with ∼4 mM 2-(N-morpholino)ethanesulfonic acid (MES) (GFS Chemicals, Columbus, OH). After injection, oocytes were briefly stored in ice-cold MBM (for 1–5 min) prior to the start of the efflux assay.
To initiate the efflux assay, we placed oocytes in standard efflux medium of composition 100 mM NaCl, 1 mM KCl, 2 mM CaCl2, 1 mM MgCl2, 0.5 mM bathophenanthroline disulfonic acid (BPS), 1 mM nitrilotriacetic acid (NTA) trisodium salt, 50 μg/ml apotransferrin (ApoTf) (R&D Systems Inc., Minneapolis, MN), buffered with 0–5 mM MES, and 0–5 mM N′,N′-diethylpiperazine to obtain pH 7.5, with the following exceptions. To prepare Ca^2+-free medium, we replaced 2 mM CaCl2 with 4 mM NaCl and added 1 mM ethylene glycol-bis(2-aminoethyl ether)-N,N,N′,N′-tetraacetic acid (EGTA). To prepare Mg^2+-free medium, we replaced […] MgCl2 with 4 mM NaCl and added 1 mM ethylenediaminetetraacetic acid (EDTA). To measure ^55Fe efflux as a function of extracellular [Ca^2+] over the range 0.1–20 mM Ca^2+ (Figs. 1c, 6b), we adjusted [NaCl] and [CaCl2] on a 2:1 molar basis without the addition of EGTA. Oocytes were then transferred individually in 200 µl of medium to flat-bottomed wells of a 96-well plate and incubated 30 min—within the linear phase of metal efflux[10] —at 23–27 °C with gentle rocking. To terminate efflux, we removed 150 µl of medium (0.75 × [N0–Nt]) from each well for liquid-scintillation counting in Ultima Gold liquid-scintillation cocktail (Perkin-Elmer, Waltham, MA). The corresponding oocytes were rinsed twice in ice-cold medium (without BPS), solubilized with 5% (w/v) sodium dodecyl sulfate, and counted (Nt). We fit our data for oocyte radiotracer content (N) over time (Eq. (1)) and obtained the first-order rate constant (k) for metal radionuclide (*M) efflux for individual oocytes. N0 and Nt are counts per min (cpm) in the oocyte at time = 0 and time = t, respectively.1 Nt=N0⋅exp(-k⋅t) […]

BbFpn N196A = BbFpn N196A (Bdellovibrio bacteriovorus, UniProt Q6MLJ0, N196A); test: Isothermal titration calorimetry, N196A BbFpn; type: binding, Bdellovibrio bacteriovorous
wild type BbFpn = wild type BbFpn (Bdellovibrio bacteriovorus, UniProt Q6MLJ0); test: biochemical; type: binding, Bdellovibrio bacteriovorous
BbFpn D24A = BbFpn D24A (Bdellovibrio bacteriovorus, UniProt Q6MLJ0, D24A); test: Isothermal titration calorimetry, D24A BbFpn; type: binding, Bdellovibrio bacteriovorous
BbFpn E203A = BbFpn E203A (Bdellovibrio bacteriovorus, UniProt Q6MLJ0, E203A); test: Isothermal titration calorimetry, E203A BbFpn; type: binding, Bdellovibrio bacteriovorous
BbFpn Q84E = BbFpn Q84E (Bdellovibrio bacteriovorus, UniProt Q6MLJ0, Q84E); test: Isothermal titration calorimetry, Q84E BbFpn; type: binding, Bdellovibrio bacteriovorous
[1] = Supplementary Figs. 5 and 9, one experiment

Chain of wild type BbFpn (Q6MLJ0 whole entry): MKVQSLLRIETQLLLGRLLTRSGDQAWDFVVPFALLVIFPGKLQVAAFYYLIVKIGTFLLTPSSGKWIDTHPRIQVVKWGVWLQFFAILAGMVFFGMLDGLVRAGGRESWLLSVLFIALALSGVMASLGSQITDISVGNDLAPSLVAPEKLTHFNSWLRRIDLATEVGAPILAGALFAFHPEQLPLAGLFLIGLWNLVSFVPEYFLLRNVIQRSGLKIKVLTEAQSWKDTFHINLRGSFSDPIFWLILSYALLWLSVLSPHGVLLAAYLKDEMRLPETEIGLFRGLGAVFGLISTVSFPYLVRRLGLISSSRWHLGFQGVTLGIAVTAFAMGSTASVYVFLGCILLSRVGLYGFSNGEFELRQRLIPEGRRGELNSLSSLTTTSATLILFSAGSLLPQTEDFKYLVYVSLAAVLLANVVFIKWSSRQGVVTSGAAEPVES
Chain of BbFpn N196A (Q6MLJ0 whole entry N196A): as the sequence (Q6MLJ0 whole entry) above, with N196A counted along it
Chain of BbFpn Q84E (Q6MLJ0 whole entry Q84E): as the sequence (Q6MLJ0 whole entry) above, with Q84E counted along it
Chain of BbFpn D24A (Q6MLJ0 whole entry D24A): as the sequence (Q6MLJ0 whole entry) above, with D24A counted along it
Chain of BbFpn E203A (Q6MLJ0 whole entry E203A): as the sequence (Q6MLJ0 whole entry) above, with E203A counted along it

## [Na+] [Na^+]
Human Fpn; presence or absence of 100 mM extracellular Na+
  Effect of extracellular Na+ replacement with choline on Fpn-mediated 55Fe efflux: unaffected

## [Sr+2] [Sr^2+, strontium]
Human Fpn
  Ability of other alkaline-earth metals to substitute for Ca2+ in activating 55Fe efflux: could partially substitute
BbFpn N196A
  Binding to N196A BbFpn by ITC (in words): complete loss
Wild type BbFpn; 20 °C, 20 mM Tris pH 8, 50 mM NaCl, 0.004% LMNG, read-out: Kd (ITC)
  Kd: 4.6e-05 ± 3.3e-06 M
Wild type BbFpn; [1]
  -TΔS, ITC: -19.2 kcal/mol
  N (sites), ITC: 0.478 ± 6.1e-2
  ΔG, ITC: -5.83 kcal/mol
  ΔH, ITC: 13.4 ± 1.90 kcal/mol
Wild type BbFpn; Supplementary Figs. 5 and 9, one experiment, read-out: KD (M), ITC
  Kd: 4.57e-05 M
BbFpn D24A
  Binding to D24A BbFpn by ITC (in words): complete loss
BbFpn E203A
  Binding to E203A BbFpn by ITC (in words): complete loss
BbFpn Q84E
  Binding to Q84E BbFpn by ITC (in words): no Ca^2+ or Sr^2+ binding

## C/C=C(/C)C(=O)O[C@H]1C(C)=C2[C@H]([C@@H]1OC(=O)CCCCCCC)[C@@](C)(OC(C)=O)C[C@H](OC(=O)CCC)[C@@]1(O)[C@H]2OC(=O)[C@@]1(C)O [thapsigargin, reference compound]
Human Fpn
  Effect on 55Fe efflux of pharmacologically raising the cytosolic Ca2+ concentration: no effect

## [Mg+2] [Mg^2+, magnesium]
Human Fpn
  Ability of other alkaline-earth metals to substitute for Ca2+ in activating 55Fe efflux: could not
Wild type BbFpn; same experimental conditions as for Ca2+
  Binding to wild type BbFpn by ITC (in words): no observable binding

## [K+] [K^+]
Wild type BbFpn
  Binding to wild type BbFpn by ITC (in words): no observable binding

## C[C@H](CCC(=O)O)C[C@H](C)C[C@H](C)C(=O)/C=C(\O)[C@H](C)C[C@H](C)C/C=C/[C@@H](C)[C@@H](O)[C@@H](C)[C@@H](O)C[C@@H]1CC[C@@](C)([C@H]2CC[C@@](C)([C@@H](C)O)O2)O1 [ionomycin, reference compound]
Human Fpn
  Effect on 55Fe efflux of pharmacologically raising the cytosolic Ca2+ concentration: no effect

## [Ba+2] [barium]
Human Fpn
  Ability of other alkaline-earth metals to substitute for Ca2+ in activating 55Fe efflux: could not
